The record followed here is patent publication US20150344466A1 (SUMITOMO CHEMICAL COMPANY, LIMITED, priority 2013, published 2015).

Format in all cases: in vivo
One test concerns Musca domestica. Briefly: Filter paper/sucrose bait death rate test on Musca domestica (Test Example 5). Conditions: female imagoes of Musca domestica, 0.7 ml on filter paper, after 24 hours. The protocol: A filter paper having a diameter of 5.5 cm was spread on the bottom of a polyethylene cup having the same diameter and 0.7 ml of the test drug solution was added dropwise onto the filter paper, and 30 mg of sucrose was uniformly placed as bait.
Into the polyethylene cup, 10 female imagoes of Musca domestica were released, and the cup was sealed with a lid. After 24 hours, the life and death of Musca domestica was examined, and the death rate was calculated. The death rate was calculated by the following equation.
Death rate (%)=(Number of dead insects/Number of tested insects)×100

The next test concerns Blattella germanica. Briefly: Knockdown spray test on Blattella germanica, 0.1% w/v oil formulation (Test Example 2). The settings on record: topical, 0.25 h, active ingredient 0.1% w/v, 1.5 ml sprayed, within 15 minutes, read-out: knockdown rate of the test insects within 15 minutes. The protocol:
Ten Blattella germanica (5 males and 5 females) were released in a test container (8.75 cm in diameter, 7.5 cm in height, and the bottom made of 16 mesh metallic wire) with the inner wall on which butter was applied, and the container was placed on the bottom of a test chamber (bottom: 46 cm×46 cm, height: 70 cm). From a height of 60 cm above the upper surface of the container, 1.5 ml of the test drug solution was sprayed using a spray gun (a spraying pressure of 0.42 kg/cm^2). Thirty seconds after spraying, the container was taken out from the test chamber, and after 2 minutes, 5 minutes and 15 minutes, the number of knocked-down insects was counted to obtain a knockdown rate. The knockdown rate was calculated by the following equation.
Knockdown Rate (%)=(Number of Knocked-down Insects/Number of Tested Insects)×100

The next test has as its system Culex pipiens pallens. Briefly: Knockdown spray test on adult Culex pipiens pallens (Test Example 4). Conditions: topical, 0.25 h, active ingredient 0.1% w/v, 0.5 ml sprayed, within 15 minutes, read-out: knockdown rate of the test insects within 15 minutes. An outline of the steps:
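Ten adult mosquitoes in a gauze-covered cup inside a 46×46×70 cm chamber were sprayed with 0.5 ml of test solution from 30 cm at 0.4 kg/cm^2. The cup was removed at once, and knocked-down insects were counted at 2, 5 and 15 min; knockdown rate (%) = knocked-down/tested ×100.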

As for `O=C(NCC1CCOC1)c1cc(COCc2ccccc2Cl)on1` (stereo not drawn) [(66), N-(tetrahydrofuran-3-ylmethyl)-5-(2-chlorobenzyloxymethyl)isoxazole-3-carboxamide], in the test with Musca domestica, the pest or weed control at 500 ppm is at least 90%. Moreover, the pest or weed control at 0.1 % strength in the test on Blattella germanica and with Culex pipiens pallens was at least 80% throughout.

With `O=C(NCC1CCOCC1)c1cc(COCc2ccccc2Cl)on1` [(67), N-(tetrahydropyran-4-ylmethyl)-5-(2-chlorobenzyloxymethyl)isoxazole-3-carboxamide], the pest or weed control at 500 ppm in the test with Musca domestica is at least 90%. The pest or weed control at 0.1 % strength with Blattella germanica and in the test on Culex pipiens pallens was at least 80% throughout.

In turn, `O=C(NCC1CCOC1)c1cc(COCc2cccc(Cl)c2)on1` (stereo not drawn) [(68)] came in with a pest or weed control at 500 ppm in the test on Musca domestica of at least 90%. Besides, the pest or weed control at 0.1 % strength with Blattella germanica and with Culex pipiens pallens was at least 80% in each case.

Consider `Cc1cccc(COCc2cc(C(=O)NCC3CCOC3)no2)c1` (stereo not drawn) [(82), N-(tetrahydrofuran-3-ylmethyl)-5-(3-methylbenzyloxymethyl)isoxazole-3-carboxamide], for which the pest or weed control at 500 ppm in the test with Musca domestica is at least 90%. Also, the pest or weed control at 0.1 % strength in the test on Blattella germanica and in the test with Culex pipiens pallens was at least 80% in each case.

As to `COc1cccc(COCc2cc(C(=O)NCC3CCOC3)no2)c1` (stereo not drawn) [(84), N-(tetrahydrofuran-3-ylmethyl)-5-(3-methoxybenzyloxymethyl) isoxazole-3-carboxamide], in the test with Musca domestica, the pest or weed control at 500 ppm is at least 90%. The pest or weed control at 0.1 % strength with Blattella germanica and in the test with Culex pipiens pallens was at least 80% throughout.

Take `O=C(NCC1CCOC1)c1cc(COCc2cccc(COCc3ccccc3)c2)on1` (stereo not drawn) [(121), N-(tetrahydrofuran-3-ylmethyl)-5-(3-benzyloxymethylbenzyloxymethyl)isoxazole-3-carboxamide]: in the test on Musca domestica, the pest or weed control at 500 ppm is at least 90%. Moreover, the pest or weed control at 0.1 % strength in the test with Blattella germanica and in the test on Culex pipiens pallens was at least 80% throughout.

In turn, `O=C(NCC1CCOCC1)c1cc(COc2cccc(F)c2)on1` [(195), N-(tetrahydropyran-4-ylmethyl)-5-(3-fluorophenoxymethyl)isoxazole-3-carboxamide] came in with a pest or weed control at 500 ppm with Musca domestica of at least 90%. In addition, the pest or weed control at 0.1 % strength in the test with Blattella germanica and in the test on Culex pipiens pallens was at least 80% each time.

For the molecule `O=C(NCC1CCOC1)c1cc(COCc2cc(F)cc(F)c2)on1` (stereo not drawn) [(266), 14-(tetrahydrofuran-3-ylmethyl)-5-(3,5-difluorobenzyloxymethyl)isoxazole-3-carboxamide], the pest or weed control at 500 ppm in the test with Musca domestica was at least 90%. Besides, the pest or weed control at 0.1 % strength with Blattella germanica and with Culex pipiens pallens was at least 80% each time.

In turn, `O=C(NCC1CCOC1)c1cc(COCc2cc(F)c(F)c(F)c2)on1` (stereo not drawn) [(267), N-(tetrahydrofuran-3-ylmethyl)-5-(3,4,5-trifluorobenzyloxymethyl)isoxazole-3-carboxamide] yielded a pest or weed control at 500 ppm in the test with Musca domestica of at least 90%. For the same molecule, the pest or weed control at 0.1 % strength in the test on Blattella germanica and with Culex pipiens pallens was at least 80% each time.

Molecule `O=C(NCC1CCOC1)c1cc(COCc2cc(F)cc(Cl)c2)on1` (stereo not drawn) [(268), N-(tetrahydrofuran-3-ylmethyl)-5-(3-chloro-5-fluorobenzyloxymethyl)isoxazole-3-carboxamide] displayed a pest or weed control at 500 ppm in the test on Musca domestica of at least 90%. Moreover, the pest or weed control at 0.1 % strength in the test with Blattella germanica and in the test with Culex pipiens pallens was at least 80% throughout.

`O=C(NCC1CCOC1)c1cc(COCc2ccc(F)c(F)c2F)on1` (stereo not drawn) [(270), N-(tetrahydrofuran-3-ylmethyl)-5-(2,3,4-trifluorobenzyloxymethyl)isoxazole-3-carboxamide]: in the test with Musca domestica, the pest or weed control at 500 ppm is at least 90%. Further, the pest or weed control at 0.1 % strength with Blattella germanica and with Culex pipiens pallens was at least 80% each time.

In turn, `Cc1cc(C)cc(COCc2cc(C(=O)NCC3CCOC3)no2)c1` (stereo not drawn) [(271), N-(tetrahydrofuran-3-ylmethyl)-5-(3,5-dimethylbenzyloxymethyl)isoxazole-3-carboxamide] had a pest or weed control at 500 ppm in the test with Musca domestica of at least 90%. In the test with Culex pipiens pallens, the pest or weed control at 0.1 % strength was at least 80%.

In turn, `O=C(NCC1CCOC1)c1cc(COCc2cccc(F)c2F)on1` (stereo not drawn) [(274), N-(tetrahydrofuran-3-ylmethyl)-5-(2,3-difluorobenzyloxymethyl)isoxazole-3-carboxamide] showed a pest or weed control at 500 ppm with Musca domestica of at least 90%. Besides, the pest or weed control at 0.1 % strength in the test with Blattella germanica and in the test with Culex pipiens pallens was at least 80% in each case.

On to `O=C(NCC1CCOC1)c1cc(COCc2c(F)cccc2F)on1` (stereo not drawn) [(275), N-(tetrahydrofuran-3-ylmethyl)-5-(2,6-difluorobenzyloxymethyl)isoxazole-3-carboxamide], for which, in the test with Musca domestica, the pest or weed control at 500 ppm is at least 90%. Also, the pest or weed control at 0.1 % strength with Culex pipiens pallens is at least 80%.

Take `O=C(NCC1CCOC1)c1cc(COCc2ccc(Cl)c(F)c2)on1` (stereo not drawn) [(276), N-(tetrahydrofuran-3-ylmethyl)-5-(4-chloro-3-fluorobenzyloxymethyl)isoxazole-3-carboxamide]: the pest or weed control at 0.1 % strength in the test with Blattella germanica and in the test on Culex pipiens pallens was at least 80% in each case.

Take `COc1ccc(COCc2cc(C(=O)NCC3CCOC3)no2)cc1F` (stereo not drawn) [(277), N-(tetrahydrofuran-3-ylmethyl)-5-(3-fluoro-4-methoxybenzyloxymethyl)isoxazole-3-carboxamide]: the pest or weed control at 0.1 % strength with Blattella germanica and with Culex pipiens pallens was at least 80% each time.

Regarding `O=C(NCC1CCOC1)c1cc(COCc2ccc(F)cc2F)on1` (stereo not drawn) [(278), N-(tetrahydrofuran-3-ylmethyl)-5-(2,4-difluorobenzyloxymethyl)isoxazole-3-carboxamide], in the test with Musca domestica, the pest or weed control at 500 ppm was at least 90%. In addition, the pest or weed control at 0.1 % strength in the test with Blattella germanica and in the test on Culex pipiens pallens was at least 80% each time.

For `O=C(NCC1CCOC1)c1noc(COCc2ccccc2F)c1F` (stereo not drawn) [(298), N-(tetrahydrofuran-3-ylmethyl)-5-(2-fluorobenzyloxymethyl)-4-fluoroisoxazole-3-carboxamide], the pest or weed control at 0.1 % strength in the test with Blattella germanica and with Culex pipiens pallens was at least 80% each time.

In the test with Musca domestica, `O=C(NCC1CCOC1)c1cc(Cc2cccs2)on1` (stereo not drawn) [(308), N-(tetrahydrofuran-3-ylmethyl)-5-(2-thienylmethyl)isoxazole-3-carboxamide] returned a pest or weed control at 500 ppm of at least 90%. In addition, in the test with Culex pipiens pallens, the pest or weed control at 0.1 % strength is at least 80%.

For the molecule `COc1cccc(Cc2cc(C(=O)NCC3CCOC3)no2)c1` (stereo not drawn) [(312), N-(tetrahydrofuran-3-ylmethyl)-5-(3-methoxybenzyl)isoxazole-3-carboxamide], the pest or weed control at 0.1 % strength in the test on Blattella germanica and with Culex pipiens pallens was at least 80% in each case.

Turning to `COc1ccccc1Cc1cc(C(=O)NCC2CCOC2)no1` (stereo not drawn) [(317), N-(tetrahydrofuran-3-ylmethyl)-5-(2-methoxybenzyl)isoxazole-3-carboxamide], the pest or weed control at 0.1 % strength in the test with Blattella germanica and in the test on Culex pipiens pallens was at least 80% throughout.

Take `O=C(NCC1CCOC1)c1cc(Cc2cccc(-c3ccccc3)c2)on1` (stereo not drawn) [(327)]: the pest or weed control at 0.1 % strength in the test with Blattella germanica and in the test with Culex pipiens pallens was at least 80% each time.

As to `Cc1cccc(Cc2cc(C(=O)NCC3CCOC3)no2)c1` (stereo not drawn) [(328), N-(tetrahydrofuran-3-ylmethyl)-5-(3-methylbenzyl)isoxazole-3-carboxamide], the pest or weed control at 0.1 % strength in the test with Blattella germanica and with Culex pipiens pallens was at least 80% in each case.

`Cc1ccc(Cc2cc(C(=O)NCC3CCOC3)no2)cc1` (stereo not drawn) [(329), N-(tetrahydrofuran-3-ylmethyl)-5-(4-methylbenzyl)isoxazole-3-carboxamide]: the pest or weed control at 0.1 % strength in the test with Blattella germanica and in the test with Culex pipiens pallens was at least 80% throughout.

For `CC1(CNC(=O)c2cc(COCc3ccc4ccccc4c3)on2)COC1` [(333), N-(3-methyloxetan-3-ylmethyl)-5-(2-naphthylmethoxymethyl)isoxazole-3-carboxamide], in the test with Musca domestica, the pest or weed control at 500 ppm is at least 90%. Also, in the test on Culex pipiens pallens, the pest or weed control at 0.1 % strength is at least 80%.

`CC1(C)CC(NC(=O)c2cc(COCc3ccccc3)on2)CCO1` (stereo not drawn) [(335), N-(2,2-dimethyltetrahydropyran-4-yl)-5-benzyloxymethylisoxazole-3-carboxamide] showed a pest or weed control at 500 ppm with Musca domestica of at least 90%. Further, the pest or weed control at 0.1 % strength with Culex pipiens pallens is at least 80%.

For the molecule `O=C(NCC1CCOC1)c1cc(COCc2ccc3sccc3c2)on1` (stereo not drawn) [(336), N-(tetrahydrofuran-3-ylmethyl)-5-[(5-benzothiophenyl)methoxymethyl]isoxazole-3-carboxamide], the pest or weed control at 0.1 % strength in the test with Blattella germanica and in the test on Culex pipiens pallens was at least 80% each time.

As for `CCc1c(C(=O)NCC2CCOC2)noc1COCc1ccc2ccccc2c1` (stereo not drawn) [(338), N-(tetrahydrofuran-3-ylmethyl)-5-(2-naphthylmethoxymethyl)-4-ethylisoxazole-3-carboxamide], the pest or weed control at 0.1 % strength in the test with Blattella germanica and in the test with Culex pipiens pallens was at least 80% throughout.
